# Laboratory results published in article PMC8706998, “Lipid Nanocarriers-Loaded Nanocomposite as a Suitable Platform to Release Antibacterial and Antioxidant Agents for Immediate Dental Implant Placement Restorative Treatment” (Pharmaceutics, 2021).
# “And” between values parts separate entries of the source, which are not always exact repeats. Equal values may be shown once.
# How the values were obtained:
# DPPH antioxidant assay = assay type: biochemical; conditions: 0.08-0.01 mg/mL
# Procedure: To evaluate the antioxidant activity of BioQ-CPX, the 2,2-diphenyl-1-picrylhydrazyl (DPPH) assay was performed. […] A measure of 0.5 mL of nanocomposite solution was transferred in polystyrene cuvette, added to 2.5 mL of DPPH ethanol solution (0.0295 mg/mL), and preserved by light exposure using foil. At determined time intervals (0, 0.25, 1, and 2 h), the DPPH concentration was measured spectrophotometrically at room temperature by observing the spectral range 400-800 nm and selecting λmax = 515 nm for quantification. The DPPH calibration curve was constructed analyzing DPPH ethanol solutions in the concentration range of 0.039-0.0156 mg/mL (λmax = 515 nm, regression equation: […] Results are expressed as means ± SE.
# [1] = QRC release study, modified transwell support with 1-octanol acceptor; assay type: physicochemical; conditions: QRC release from BioQ-CPX, data up to 30 h
# Procedure: QRC release studies were carried out using a modified transwell permeable support (0.45 µm) filled with 5 mg of the BioQ-CPX powder and soaked with 0.2 mL of citrate buffer pH 5.5. The entire system was dipped inside a beaker filled with 8 mL of 1-octanol as a suitable acceptor fluid. […] The experiments were carried out at 37 ± 0.5 °C under constant stirring and protected by light exposure while, immediately after sampling, opportune volumes of fresh acceptor fluid were added to maintain the sink conditions. Data are reported as means ± SE (n = 6). Drug release profiles were elaborated using OriginPro 8.5 software and fitted with semi-empirical model equations. Fittings were validated by using R^2 value where a p-value of less than 0.05 was considered statistically significant.
smiles,measurement,setting,value
"O=c1c(O)c(-c2ccc(O)c(O)c2)oc2cc(O)cc(O)c12 [QRC, quercetin]",%RCD compared with BioQ-CPX samples,"DPPH antioxidant assay; corresponding to QRC content of the nanocomposite samples, after 1 and 2 h",same values of %RCD and trends
same,scavenging activity compared with BioQ-CPX samples,DPPH antioxidant assay; within 15 min incubation,lower
same,Korsmeyer-Peppas n,[1],0.7915
same,Korsmeyer-Peppas with Tlag n,[1],0.6509 ± 0.0127 and 0.6509
same,First-Order k,[1]; time in hours,0.05179
same,Korsmeyer-Peppas k,[1]; time in hours,0.0578
same,Korsmeyer-Peppas with Tlag k,[1]; time in hours,0.0947
same,Korsmeyer-Peppas with Tlag: Tlag,[1]; time in hours,1.440
same,Zero-Order k,[1]; time in hours,0.02997
